Holding throughout (assay type): cell-based
Test [1] concerns THP-1. The experiment in a line: CellTiterGlo viability, AML cell line. The settings on record: single agent, 3 days.
In test [2] the test system is Nomo-1. The experiment in a line: CellTiterGlo viability, AML cell line. The following applies: single agent, 3 days.
Test [3] has as its system GDM-1. The experiment in a line: CellTiterGlo viability, AML cell line. The settings on record: single agent, 3 days.
The test system of test [4] is PL-21. In words: CellTiterGlo viability, AML cell line. The settings on record: single agent, 3 days.
For test [5], the system named is HL-60. In words: CellTiterGlo viability, AML cell line. The settings on record: single agent, 3 days.
Test [6] relates to Kasumi-1. The experiment in a line: CellTiterGlo viability, AML cell line. The settings on record: single agent, 3 days.
Test [7] has as its system KARPAS-422. The experiment in a line: CellTiterGlo viability, DLBCL cell line. The following applies: single agent, 2 days; for IC50: read-out: Abs IC50.
Protocol: (§1) In addition, all media contained penicillin (100 IU/ml), streptomycin (100 μg/ml) and L-glutamine (2 mM). Unless otherwise mentioned, culture media and supplements were from Amimed/Bioconcept (Allschwil, Switzerland).
(§2) Cell lines were cultured at 37° C. in a humidified atmosphere containing 5% CO2 and expanded in T-75 flasks. In all cases cells were thawed from frozen stocks, expanded through ≥1 passage using appropriate dilutions, counted and assessed for viability using a CASY cell counter (Omni Life Science, Bremen, Germany) prior to plating 25 ul/well at the densities indicated in Table 1 into 384-well plates (Corning).
(§3) Stock solutions of compounds were prepared at a concentration of 10 mM in DMSO (Sigma) and stored at −20° C. Where necessary to afford a full dose-response curve, the stock solutions were pre-diluted in DMSO to 1′000-fold the desired start concentration (see Table 2). On the day after cell seeding, eight 2.5-fold serial dilutions of each compound were dispensed, either individually or in all possible permutations in a checkerboard fashion, directly into the cell assay plates using a non-contact 300D Digital Dispenser (ILCAN, Mannedorf, Switzerland) as outlined in FIG. 4. The final concentration of DMSO was 0.2% in all wells.
(§4) Effects of the single agents as well as their checkerboard combinations on cell viability were assessed after 2 days of incubation at 37° C./5% CO2 by quantification of cellular ATP levels using CellTiterGlo (Promega, Madison, Wis., USA) at 25 μL reagent/well and n=2 replicate plates per condition. Luminescence was quantified on a M1000 multipurpose platereader (ILCAN, Mannedorf, Switzerland). The number/viability of cells at time of compound addition was likewise assessed and used to assess the degree of the population doubling time of a particular cell line.
(§5) Single agent IC50s were calculated using standard four-parametric curve fitting. […] IC50 are defined as the compound concentration at which the CTG signal is reduced to 50% of that measured for the vehicle (DMSO) control.
In test [8] the test system is SU-DHL-4. The experiment in a line: CellTiterGlo viability, DLBCL cell line. The following applies: single agent, 2 days; for IC50: read-out: Abs IC50.
Protocol: as §1
(§6) Cell lines were cultured at 37° C. in a humidified atmosphere containing 5% CO2 and expanded in T-75 flasks. In all cases cells were thawed from frozen stocks, expanded through ≥1 passage using appropriate dilutions, counted and assessed for viability using a CASY cell counter (Omni Life Science, Bremen, Germany) prior to plating 25 ul/well at the densities indicated in Table 1 into 384-well plates (Corning). All cell lines were determined to be free of mycoplasma contamination by PCR assay performed at Idexx Radii (Columbia, Mo., USA) and misidentification ruled out by assessment of a panel of 48 Small Nucleotide Polymorphisms (SNPs) at Asuragen (Austin, Tex., USA) or in-house.
as §3, §4, §5
In test [9] the test system is DOHH-2. In words: CellTiterGlo viability, DLBCL cell line. The following applies: single agent, 2 days; for IC50: read-out: Abs IC50.
Protocol: as §1, §6, §3, §4
Single agent IC50s were calculated using standard four-parametric curve fitting. […] All calculations were performed using the Combination Analysis Module in-house software. IC50 are defined as the compound concentration at which the CTG signal is reduced to 50% of that measured for the vehicle (DMSO) control.
Test [10] has as its system NALM-6. The experiment in a line: CellTiterGlo viability, B-ALL cell line. The settings on record: for IC50: NALM-6, B-ALL, single agent, 72 h; for growth inhibition: NALM-6 cells, fourth lowest concentration tested (FIG. 11, top left panel). How it is done:
In addition, all media contained penicillin (100 IU/ml), streptomycin (100 μg/ml) and L-glutamine (2 mM). […] All cell lines were determined to be free of mycoplasma contamination in-house. Stock solutions of compounds were prepared at a concentration of 5 mM in DMSO and stored at −20° C. In order to analyse the activity of the compounds as single agents, cells were seeded and treated with nine 2-fold serial dilutions of each compound dispensed individually directly into the cell assay plates. […] All the conditions were tested in triplicates. Luminescence was quantified on a multipurpose plate reader. Single agent IC50s were calculated using standard four-parametric curve fitting. […] In order to analyse the activity of the compounds in combination, cells were seeded and treated with seven or eight 3.16-fold serial dilutions of each compound dispensed, either individually or in all possible permutations in a checkerboard fashion, directly into the cell assay plates as indicated in FIG. 1. […] For B-ALL cell lines, two independent experiments, each one performed in duplicates, were performed. For T-ALL cell lines, one experiment performed in triplicate was performed. Luminescence was quantified on a multipurpose plate reader. […] All calculations were performed using Chalice TM Bioinformatics Software available in Horizon website.

Test [11] concerns NU-DHL-1. The experiment in a line: CellTiterGlo viability, DLBCL cell line. The following applies: single agent, 2 days; for IC50: read-out: Abs IC50.
Protocol: as §1, §2, §3, §4, §5
Test [12] concerns OCI-LY-19. The experiment in a line: CellTiterGlo viability, DLBCL cell line. The settings on record: single agent, 2 days; for IC50: read-out: Abs IC50.
Protocol: as §1, §2, §3, §4, §5

Molecules are shown by their SMILES. Read-outs that look alike come from different tables or passages of the source.

2 compounds from patent US20190240225A1, “COMBINATION OF A BCL-2 INHIBITOR AND A MCL-1 INHIBITOR, USES AND PHARMACEUTICAL COMPOSITIONS THEREOF” (LES LABORATOIRES SERVIER, priority 2016, published 2019) can be followed below.

On to `Cl.O=C(c1cc(-c2cc3c(cc2C(=O)N2Cc4ccccc4C[C@H]2CN2CCOCC2)OCO3)n2c1CCCC2)N(c1ccccc1)c1ccc(O)cc1` [Compound 1, HCl, N-(4-hydroxyphenyl)-3-{6-[((3S)-3-(4-morpholinylmethyl)-3,4-dihydro-2(1H)-isoquinolinyl)carbonyl]-1,3-benzodioxol-5-yl}-N-phenyl-5,6,7,8-tetrahydro-1-indolizine carboxamide hydrochloride], for which the IC50 was determined as 750 nM in test [1] (Homo sapiens, 72 h); 7450 nM in [2] (Homo sapiens, 72 h); 60 nM in test [3] (Homo sapiens, 72 h); 2780 nM in [4] (72 h); 1420 nM in [5] (Homo sapiens, 72 h); 770 nM in test [6] (Homo sapiens, 72 h). The concentration for half-maximal inhibition (IC50) is 2180 nM in test [7] (Homo sapiens, 48 h); 860 nM in test [8] (Homo sapiens, 48 h); 156 nM in [9] (Homo sapiens, 48 h); 3630 nM in [10] (Homo sapiens); 51.5 nM in test [11] (Homo sapiens, 48 h); 89.5 nM in test [12] (Homo sapiens, OCI-LY19, 48 h). Also, the “Max Inh” value in [7] is given as 90.9%; in test [8] it was 96.9%; in test [9] it was 101.9%; in test [11] it was 102.1%; in test [12], 100.1%. Further, the growth inhibition in test [10] turned out to be 8%.

Take `COc1ccccc1-c1nccc(COc2ccccc2C[C@@H](Oc2ncnc3sc(-c4ccc(F)cc4)c(-c4ccc(OCCN5CCN(C)CC5)c(Cl)c4C)c23)C(=O)O)n1` [Compound 3, (2R)-2-{[(5Sa)-5-{3-chloro-2-methyl-4-[2-(4-methylpiperazin-1-yl)ethoxy]phenyl}-6-(4-fluorophenyl)thieno[2,3-d]pyrimidin-4-yl]oxy}-3-(2-{[2-(2-methoxyphenyl)pyrimidin-4-yl]methoxy}phenyl)propanoic acid]: the half-inhibitory concentration (IC50) was determined as 17 nM in test [1]; 13 nM in test [2]; 8 nM in [3]; 65 nM in test [4]; 25 nM in [5]; 33 nM in test [6]. Moreover, the IC50 in test [7] is 2.14 nM; in test [8] it was 17.8 nM; in test [9] it was 1.22 nM; in test [10] it was 120 nM; in test [11], 57.9 nM; in test [12], 60.4 nM. Moreover, the “Mean of Max Inh” value in test [3] (combination (c) experiment) stood at 100%. Besides, the “Max Inh” value in test [7] worked out at 98.3%; in [8] it was 99.5%; in test [9], 98.3%; in test [11], 98.1%; in test [12], 98.5%. In test [10], the growth inhibition is on record as 6%.
